Measurements: US20250186541A1, “DLL3 TARGETING PEPTIDES AND CONSTRUCTS THEREOF” (MARIANA ONCOLOGY INC., priority 2023, published 2025)
Bridge positions count the residues as written; N and C are the ends. Square brackets hold non-standard residues; d marks the D form. Peptide text beside a SMILES is read from it. * marks the point of attachment. DOTA = O=C(O)CN1CCN(CC(=O)O)CCN(CC(=O)*)CCN(CC(=O)O)CC1; Phe(4-CH2NH2) = NCc1ccc(C[C@H](N)C(=O)O)cc1; 1Nal = N[C@@H](Cc1cccc2ccccc12)C(=O)O; 2Nal = N[C@@H](Cc1ccc2ccccc2c1)C(=O)O; Phe(2-Me) = Cc1ccccc1C[C@H](N)C(=O)O; tBuAla = CC(C)(C)C[C@H](N)C(=O)O; NMeQ = CN[C@@H](CCC(N)=O)C(=O)O; αMeD = C[C@](N)(CC(=O)O)C(=O)O; Chg = N[C@H](C(=O)O)C1CCCCC1; αMeP = C[C@@]1(C(=O)O)CCCN1; Ahx = NCCCCCC(=O)O

T1: human DLL3 (Homo sapiens, UniProt Q9NYJ7)
T1 construct: biotin (biotinylated)
T1 sequence (Q9NYJ7 27-618): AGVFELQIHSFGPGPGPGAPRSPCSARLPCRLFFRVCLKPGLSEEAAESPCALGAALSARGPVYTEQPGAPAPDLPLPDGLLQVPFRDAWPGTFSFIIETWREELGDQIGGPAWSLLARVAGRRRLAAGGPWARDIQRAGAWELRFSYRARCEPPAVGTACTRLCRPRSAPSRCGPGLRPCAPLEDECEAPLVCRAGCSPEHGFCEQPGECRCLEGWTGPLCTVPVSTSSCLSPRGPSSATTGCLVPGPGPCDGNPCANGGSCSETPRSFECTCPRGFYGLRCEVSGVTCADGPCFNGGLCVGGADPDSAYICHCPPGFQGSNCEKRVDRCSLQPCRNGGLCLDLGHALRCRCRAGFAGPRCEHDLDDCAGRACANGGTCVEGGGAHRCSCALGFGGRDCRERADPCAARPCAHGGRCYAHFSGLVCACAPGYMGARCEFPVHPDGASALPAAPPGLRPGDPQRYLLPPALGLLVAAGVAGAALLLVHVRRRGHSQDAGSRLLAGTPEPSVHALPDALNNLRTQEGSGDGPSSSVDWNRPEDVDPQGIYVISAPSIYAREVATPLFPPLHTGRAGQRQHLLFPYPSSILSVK

T2: Biotinylated human DLL3 (human, UniProt Q9NYJ7 27-492, biotinylated (site not stated))
T2 construct: also called Delta-like ligand 3; Delta Like Canonical Notch Ligand 3
T2 sequence (looked up): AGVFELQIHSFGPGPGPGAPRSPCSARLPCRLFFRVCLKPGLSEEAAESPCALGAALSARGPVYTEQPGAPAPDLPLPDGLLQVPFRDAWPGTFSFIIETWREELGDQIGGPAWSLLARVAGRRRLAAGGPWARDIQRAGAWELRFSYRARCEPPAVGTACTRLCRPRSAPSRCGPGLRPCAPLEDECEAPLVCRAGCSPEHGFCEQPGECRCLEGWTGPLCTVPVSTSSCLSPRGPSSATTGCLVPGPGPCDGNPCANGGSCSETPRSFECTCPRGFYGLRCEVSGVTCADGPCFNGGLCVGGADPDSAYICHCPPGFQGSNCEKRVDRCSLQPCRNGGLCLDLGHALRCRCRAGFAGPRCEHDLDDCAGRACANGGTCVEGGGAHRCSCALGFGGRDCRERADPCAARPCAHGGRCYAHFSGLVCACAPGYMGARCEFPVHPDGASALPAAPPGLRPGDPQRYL


Key:
SHP-77 cells [1] = experiment: Internalization of [177Lu]Lu-labeled peptide after glycine acid wash, gamma counter internalized fraction; assay type: cell-based, human; conditions: [177Lu]Lu-test peptide, 1 h, 37° C., acid wash 50 mM Glycine pH 2.5
Method: (§1) Example 4. Cell Binding, Internalization, and Radiolabeling of Targeting Moieties Polypeptides General Procedure for Radiolabeling of RPTs with [^177Lu]LuCl3
(§2) [^177Lu]LuCl3 was received from venders in HCl solution. For every mCi of [^177Lu]LUCl3 added to the reaction vial (1.5 mL Eppendorf vial), ammonium acetate buffer (0.2 M, pH 4.9, 100 μL, containing 1% w/v ascorbic acid and 6% v/v ethanol) and peptide conjugate (1 nmol) was added. The pH of the solution was determined to be approximately 5 by using pH strips. The reaction vial was incubated at 80° C., 700 RPM for 17-20 minutes. A sample from the reaction was analyzed by RP-HPLC using an Agilent Infinity II 1260 HPLC to determine reaction completion and radiochemical purity. HPLC conditions: Waters XBridge BEH […] Column, 130 Å, 3.5 um, 4.6 mm×250 mm; mobile phase: Solvent A=water (with 0.1% formic acid), solvent B=acetonitrile (with 0.1% formic acid). Gradients: 25-45% B in 10 minutes, 45-65% B in 12 minutes, 65-90% in 6 minutes at a flow rate of 0.5 mL/min. Required amounts of the product was formulated in 1% PBSA for cell studies.
(§3) The study was conducted using SHP-77cells (Table 7) Adherent cell studies: The cells were cultured in appropriate culture media (20 mL) in tissue culture treated T150 flasks at 37° C. and 5% CO2. Adherent cells were detached (60-70% confluent) using 5 mL Versene at 37° C. for 3 min. After confirming the viability using countess and count of detached cells using Trypan blue, the cells were centrifuged at 4° C. for 5 minutes (1,000 rpm). The cell pellet obtained was washed once with PBS and resuspended in 1% PBSA to obtain the desired cell concentration (5-25 million cells/mL).
as §3, with “Suspension” for “The study was conducted using SHP-77cells (Table 7) Adherent”, “CO2.” for “CO2. Adherent cells were detached (60-70% confluent) using 5 mL Versene at 37° C. for 3 min.”, “viability” for “viability using countess”
(§4) Cell numbers used for the assay were in the range of 5 million cells/condition −25 million cells/condition.
Internalization: The resuspended cells in 300 μl of 1% PBSA and counted in the gamma counter as “bound fraction” were collected in 1.5 ml Eppendorf tube and pelleted. The pelleted cells were incubated with 300 μl of 50 mM Glycine pH=2.5 for 3 minutes and then pelleted discarding the supernatant. This process was repeated one more time. The pelleted cells were washed with 300 μl of cold 1% PBSA and then resuspended in 300 μl 0.3M NaOH. This was counted in the gamma counter as “internalized fraction”.
(§5) SHP-77 cells are human-derived, non-engineered SCLC cells.

human DLL3 = biological target: T1, human DLL3; experiment: Affinity determination by Surface Plasmon Resonance (SPR), Biacore, 1:1 binding model; conditions: biotinylated human DLL3 on streptavidin chip, 25° C.; NB = nonbinding
Procedure, shortened: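 SPR with biotinylated human DLL3 captured on a streptavidin chip, with a reference surface subtracted. Samples were injected at several concentrations at 100 μL/min in phosphate buffer with 137 mM NaCl, 2.7 mM KCl, 0.05% P20 and 2% DMSO. Kinetic and affinity constants came from a 1:1 binding fit.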

SHP-77 cells [2] = experiment: Cell binding (total uptake) of [177Lu]Lu-labeled peptide, gamma counter bound fraction; assay type: cell-based, human; conditions: [177Lu]Lu-test peptide, 1 h, 37° C., 1% PBSA
Method: as §1, §2, §3
as §3, with “Suspension” for “The study was conducted using SHP-77cells (Table 7) Adherent”, “CO2.” for “CO2. Adherent cells were detached (60-70% confluent) using 5 mL Versene at 37° C. for 3 min.”, “viability” for “viability using countess”
as §4
Total uptake: Cells were incubated with 300 μL (0.8 μCi) of the incubation buffer (containing radiolabeled peptide [^177Lu]Lu-test peptide) for 1 hour at 37 C (Table 8). Post incubation, the cells were pelleted and washed 2 times using cold PBS+1% BSA. The supernatant and washes were combined and counted together as “unbound fraction” in a gamma counter. The cells were then resuspended in 300 μL of 1% PBS+1% BSA and counted in the gamma counter as “bound fraction”.
as §5

Biotinylated human DLL3 = biological target: T2, Biotinylated human DLL3; experiment: SPR, biotin-hDLL3 on SA chip

| Kd (human DLL3) [nM] | binding result (Biotinylated human DLL3) | Molecule | % Internalization (out of bound fraction) (SHP-77 cells [1]) [%] | % Binding (SHP-77 cells [2]) [%] |
| --- | --- | --- | --- | --- |
| 0.026 |  | CC(=O)N[C@H](C)C(=O)N[C@@H](CO)C(=O)N[C@@](C)(CC(=O)O)C(=O)N[C@H]1CSSC[C@@H](C(=O)N2CCC[C@@]2(C)C(=O)N[C@@H](Cc2ccccc2)C(=O)N[C@@H](CC(=O)O)C(=O)N[C@H](CCCCNC(=O)CN2CCN(CC(=O)O)CCN(CC(=O)O)CCN(CC(=O)O)CC2)C(N)=O)NC(=O)[C@H](CC(N)=O)NC(=O)[C@H](Cc2ccc3ccccc3c2)NC(=O)[C@H](CCC(N)=O)NC(=O)[C@H](CC(C)(C)C)NC(=O)[C@H](Cc2cccc3ccccc23)NC1=O [Cpd #168, Ac-(D-Ala)-S-(aMe-Asp)-C(3)-(1Nal)-(t-Bu-Ala)-Q-(2Nal)-N-C(3)-(aMe-P)-F-D-[D-Lys(DOTA)]-NH2] (Ac-[dA]S[αMeD]C[1Nal][tBuAla]Q[2Nal]NC[αMeP]FD[dK](DOTA)-NH2; disulfide 4-10) | 59 | 8 |
|  | no binding | Ac-[Chg]SDCWLQK(DOTA)NCPFD-NH2 (disulfide 4-10; SMILES CC(=O)N[C@H](C(=O)N[C@@H](CO)C(=O)N[C@@H](CC(=O)O)C(=O)N[C@H]1CSSC[C@@H](C(=O)N2CCC[C@H]2C(=O)N[C@@H](Cc2ccccc2)C(=O)N[C@@H](CC(=O)O)C(N)=O)NC(=O)[C@H](CC(N)=O)NC(=O)[C@H](CCCCNC(=O)CN2CCN(CC(=O)O)CCN(CC(=O)O)CCN(CC(=O)O)CC2)NC(=O)[C@H](CCC(N)=O)NC(=O)[C@H](CC(C)C)NC(=O)[C@H](Cc2c[nH]c3ccccc23)NC1=O)C1CCCCC1) [Cpd #99] |  |  |
|  | no binding | {DOTA-Ahx}-SDCWL[NMeQ]WNCPFD-NH2 (disulfide 3-9) [Cpd #93] |  |  |
|  | no binding | Ac-SDCWLQWNCPFD-NH2 (disulfide 3-9) [Cpd #5] |  |  |

More lines, now with the values behind:

| Molecule | Kd (human DLL3) [nM] | binding result (Biotinylated human DLL3) | % Internalization (out of bound fraction) (SHP-77 cells [1]) [%] | % Binding (SHP-77 cells [2]) [%] |
| --- | --- | --- | --- | --- |
| CC(=O)N[C@H](C)C(=O)N[C@@H](CO)C(=O)N[C@@H](CC(=O)O)C(=O)N[C@H]1CSSC[C@@H](C(=O)N2CCC[C@@]2(C)C(=O)N[C@@H](Cc2ccccc2)C(=O)N[C@@H](CC(=O)O)C(N)=O)NC(=O)[C@H](CC(N)=O)NC(=O)[C@H](Cc2ccc3ccccc3c2)NC(=O)[C@H](Cc2ccc(CNC(=O)CN3CCN(CC(=O)O)CCN(CC(=O)O)CCN(CC(=O)O)CC3)cc2)NC(=O)[C@H](CC(C)(C)C)NC(=O)[C@H](Cc2cccc3ccccc23)NC1=O [Cpd #158, Ac-(D-Ala)-S-D-C(3)-(1Nal)-(t-Bu-Ala)-[PAF(DOTA)]-(2Nal)-N-C(3)-(aMe-P)-F -D-CONH2] (Ac-[dA]SDC[1Nal][tBuAla][Phe(4-CH2NH2)](DOTA)[2Nal]NC[αMeP]FD-NH2; disulfide 4-10) | 0.12 |  | 63 | 25 |
| CC(=O)N[C@H](C(=O)N[C@@H](CO)C(=O)N[C@@H](CC(=O)O)C(=O)N[C@H]1CSSC[C@@H](C(=O)N2CCC[C@@]2(C)C(=O)N[C@@H](Cc2ccccc2)C(=O)N[C@@H](CC(=O)O)C(=O)N[C@H](CCCCNC(=O)CN2CCN(CC(=O)O)CCN(CC(=O)O)CCN(CC(=O)O)CC2)C(N)=O)NC(=O)[C@H](CC(N)=O)NC(=O)[C@H](Cc2ccc3ccccc3c2)NC(=O)[C@H](CCC(N)=O)NC(=O)[C@H](C2CCCCC2)NC(=O)[C@H](Cc2cccc3ccccc23)NC1=O)C1CCCCC1 [compound 125, Ac-(Chg)-S-D-C(3)-(1Nal)-(Chg)-Q-(2Nal)-N-C(3)-(aMe-P)-F-D-D-Lys(DOTA)-CONH2] (Ac-[Chg]SDC[1Nal][Chg]Q[2Nal]NC[αMeP]FD[dK](DOTA)-NH2; disulfide 4-10) | 0.16 |  | 51 | 17 |
| Cc1ccccc1C[C@H](NC(=O)[C@]1(C)CCCN1C(=O)[C@@H]1CSSC[C@H](NC(=O)[C@H](CC(=O)O)NC(=O)[C@H](CO)NC(=O)[C@@H](C)NC(=O)CN2CCN(CC(=O)O)CCN(CC(=O)O)CCN(CC(=O)O)CC2)C(=O)N[C@@H](Cc2cccc3ccccc23)C(=O)N[C@@H](CC(C)(C)C)C(=O)N[C@@H](CCC(N)=O)C(=O)N[C@@H](Cc2ccc3ccccc3c2)C(=O)N[C@@H](CC(N)=O)C(=O)N1)C(=O)N[C@@H](CC(=O)O)C(N)=O [compound 154, DOTA-(D-Ala)-S-D-C(3)-(1Nal)-(t-Bu-Ala)-Q-(2Nal)-N-C(3)-(aMe-P)-(2Me-F)-D-CONH2] ({DOTA}-[dA]SDC[1Nal][tBuAla]Q[2Nal]NC[αMeP][Phe(2-Me)]D-NH2; disulfide 4-10) | 0.18 |  | 58 | 10 |
| Ac-[Chg]SDCK(DOTA)LQWNCPFD-NH2 (disulfide 4-10; SMILES CC(=O)N[C@H](C(=O)N[C@@H](CO)C(=O)N[C@@H](CC(=O)O)C(=O)N[C@H]1CSSC[C@@H](C(=O)N2CCC[C@H]2C(=O)N[C@@H](Cc2ccccc2)C(=O)N[C@@H](CC(=O)O)C(N)=O)NC(=O)[C@H](CC(N)=O)NC(=O)[C@H](Cc2c[nH]c3ccccc23)NC(=O)[C@H](CCC(N)=O)NC(=O)[C@H](CC(C)C)NC(=O)[C@H](CCCCNC(=O)CN2CCN(CC(=O)O)CCN(CC(=O)O)CCN(CC(=O)O)CC2)NC1=O)C1CCCCC1) [Cpd #97] |  | no binding |  |  |
